From ChEMBL document CHEMBL3045730, “An efficient anticancer histone deacetylase inhibitor and its analogues for human HDAC8” (Med Chem Res, 2012)

Molecular target: T1, Histone deacetylase 8 (Homo sapiens, UniProt Q9BY41)
T1 sequence (Q9BY41 whole entry): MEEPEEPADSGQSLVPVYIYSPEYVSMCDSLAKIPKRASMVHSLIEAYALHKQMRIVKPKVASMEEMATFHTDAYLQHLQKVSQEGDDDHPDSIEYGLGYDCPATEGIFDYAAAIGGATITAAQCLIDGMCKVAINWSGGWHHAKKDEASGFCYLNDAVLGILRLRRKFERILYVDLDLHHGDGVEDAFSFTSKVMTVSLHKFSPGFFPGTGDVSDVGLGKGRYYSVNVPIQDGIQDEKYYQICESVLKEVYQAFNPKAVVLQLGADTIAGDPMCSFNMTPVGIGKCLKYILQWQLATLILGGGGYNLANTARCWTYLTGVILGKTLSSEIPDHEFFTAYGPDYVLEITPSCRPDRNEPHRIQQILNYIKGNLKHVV
Test: Inhibition of Homo sapiens (human) HDAC8

| Structure (SMILES) | IC50 [nM] |
| --- | --- |
| COc1ccc(N)c(NC(=O)c2ccc(CNC(=O)OCc3cccnc3)cc2)c1 | 4600 |
| O=C(NCc1ccc(C(=O)Nc2ccccc2)cc1)OCc1cccnc1 | > 100000 |
| Nc1ccc(NC(=O)c2ccc(CNC(=O)OCc3cccnc3)cc2)cc1 | > 100000 |
| Cc1ccc(N)c(NC(=O)c2ccc(CNC(=O)OCc3cccnc3)cc2)c1 | 2800 |
| O=C(/C=C/c1ccc(Cc2ccc(CO)cc2)cc1)NO | 20 |
| O=C(/C=C/c1ccc(Cc2ccc(O)c(Cl)c2)cc1)NO | 460 |
| O=C(CCCCCCCN1C(=O)c2ccccc2C1=O)NO | 71.4 |
| O=C(CCCCCCCCC(=O)c1ccccc1)NO | 135 |
| O=C(CCCCCCCC(=O)c1cccnc1)NO | 153 |
| COc1ccccc1C(=O)CCCCCCCC(=O)NO | 95 |
| COc1ccc(C(=O)CCCCCCCC(=O)NO)cc1 | 15 |
| O=C(CCCCCCCC(=O)c1ccc(C(F)(F)F)cc1)NO | 45 |
| O=C(CCCCCCCC(=O)c1ccc(Br)cc1)NO | 45 |
| O=C(CCCCCCCC(=O)c1ccc(-c2ccccc2)cc1)NO | 5 |
| O=C(CCCCCCC/C(=N\O)c1ccc2ccccc2c1)NO | 8.5 |
| O=C(CCCCCCC/C(=N\O)c1ccc(-c2ccccc2)cc1)NO | 4 |
| C=C(CCCCCCCC(=O)NO)c1ccc2ccccc2c1 | 8 |
| O=C(CCCCCCCC(=O)c1ccc(-c2ccc(Br)cc2)cc1)NO | 2 |
| O=C(CCCCCCCC(=O)c1ccc(N2CCCCC2)cc1)NO | 9.5 |

| Structure (SMILES) | IC50 [nM] |
| --- | --- |
| O=C(CCCCCCCC(=O)c1ccc(N2CCN(c3ccccc3)CC2)cc1)NO | 4.5 |
| CC(CCCCCC(=O)c1ccc2ccccc2c1)C(=O)NOCCCCC(=O)NO (stereo unspecified) | 600 |
| O=C(CCCCCC/C=C/c1ccc2ccccc2c1)NO | 6 |
| O=C(CCCCCCCCc1ccc2ccccc2c1)NO | 25 |
| O=C(CCCCCCCC(O)c1ccc2ccccc2c1)NO (stereo unspecified) | 35 |
| C/C(=C\Cc1ccc(NS(=O)(=O)c2ccccc2)cc1)CC(=O)NO | 2000 |
| CC(C)(C)c1ccc(CS(=O)(=O)Nc2ccc(/C=C\C(=O)NO)cc2)cc1 | 100 |
| CC(C)c1cc(C(C)C)c(C(C)C)cc1CS(=O)(=O)Nc1ccc(/C=C\C(=O)NO)cc1 | 600 |
| COc1ccc(CS(=O)(=O)Nc2ccc(/C=C\C(=O)NO)cc2)cc1 | 60 |
| COc1ccc(CS(=O)(=O)Nc2ccc(/C=C\C(=O)NO)cc2)cc1OC | 90 |
| O=C(NO)c1ccc(CCCc2ccccc2)cc1 | 1000 |
| Cc1ccc(NC(=O)c2ccc(CNC(=O)OCc3cccnc3)cc2)c(N)c1 | > 100000 |
| Cc1ccc(S(=O)(=O)Nc2ccc(/C=C/C(=O)NO)cc2)cc1 | 300 |
| O=C(Cc1ccc(NS(=O)(=O)c2ccccc2)cc1)NO | 900 |
| Nc1cc(Cl)ccc1NC(=O)c1ccc(CNC(=O)OCc2cccnc2)cc1 | 40000 |
| COc1ccc(NC(=O)c2ccc(CNC(=O)OCc3cccnc3)cc2)c(N)c1 | 44000 |
| Nc1ccc(Cl)cc1NC(=O)c1ccc(CNC(=O)OCc2cccnc2)cc1 | 7700 |
| O=C(NCc1ccc(C(=O)Nc2ccccc2O)cc1)OCc1cccnc1 | 2200 |
| Nc1ccc(F)cc1NC(=O)c1ccc(CNC(=O)OCc2cccnc2)cc1 | 6000 |

| Structure (SMILES) | IC50 [nM] |
| --- | --- |
| O=C(/C=C/C=C/c1ccc(-c2ccccc2)cc1)NO | > 5000 |
| CC(=O)c1cc(/C=C/C(=O)NO)n(C)c1 | 11300 |
| Cn1cc(C=O)cc1CCC(=O)NO | 52600 |
| Cn1cc(C(=O)Cl)cc1/C=C/C(=O)NO | 9650 |
| O=C(CCc1ccc(-c2ccc(O)cc2)cc1)NO | 1700 |
| Cn1cc(C=O)cc1/C=C/C(=O)NO | 12300 |
| O=C(/C=C/c1cccc(-c2ccc(O)cc2)c1)NO | 320 |
| O=C(CCCCCCC(=O)c1ccc2ccccc2c1)NO | 35 |
| COc1ccc(C(=O)CCCCCCC(=O)NO)cc1 | 450 |
| O=C(/C=C/c1ccc(NS(=O)(=O)c2ccc(Cl)cc2Cl)cc1)NO | 300 |
| O=C(/C=C/c1ccc(NS(=O)(=O)c2ccc(Cl)c(Cl)c2)cc1)NO | 100 |
| O=C(CCCCCC(=O)c1ccccc1)NO | 1500 |
| O=C(CCCCCCC(=O)c1ccccc1)NO | 500 |
| O=C(CCc1ccc(NS(=O)(=O)c2ccccc2)cc1)NO | 100 |
| Nc1cccc(NC(=O)c2ccc(CNC(=O)OCc3cccnc3)cc2)c1 | > 100000 |
| O=C(CCCCCCCC(=O)c1ccccc1)NO | 65 |
| CC(=O)Nc1ccccc1NC(=O)c1ccc(CNC(=O)OCc2cccnc2)cc1 | > 100000 |
| Cc1cccc(NC(=O)c2ccc(CNC(=O)OCc3cccnc3)cc2)c1N | > 100000 |
